Measurements reported in US11369657B2, “Small molecule polypeptide for preventing and restraining inflammation and application of same” (SHANGHAI FIRST PEOPLE'S HOSPITAL, priority 2011, dated 2022).
“Also recorded” adds a separate entry of the source. Blank lines part the entries; values can stand above or below the compound they belong to. Peptide text beside a SMILES is read from it.

Tests used:
ocular inflammation = assay: Inhibiting effect of derived polypeptides on ocular inflammation according to Examples 2-3
Experimental: (§1) Derived Polypeptides were prepared as follows. Polypeptides were prepared according to the method in Example 1, and the inhibiting effect of the polypeptides on ocular inflammation was determined according to Examples 2-3.

uveitis in rats = assay: LPS-induced uveitis in rats, intravitreal injection of polypeptide; type: in vivo, rat; details: for protein concentration in rat aqueous humor / exuded cells count in rat anterior chamber / aqueous humor: 24 hours after LPS injection, vs LPS+PBS group; for protein concentration in rat aqueous humor: BCA method, LS22 intravitreally; for exuded cells count in rat anterior chamber / aqueous humor: LS22 10, 50 or 100 μg intravitreally
Experimental: 8-week old male wistar rats were randomly divided into 5 groups with 10 rats for each, which are blank+PBS, LPS+PBS group, LPS+LS22 10 μg group, LPS+LS22 50 μg group, LPS+LS 22 100 μg group. 0.15 ml of pentobarbital (5.47 g/100 ml normal saline) was intraperitoneally injected into the rats for anesthesia. 100 μl of LPS (2 μg/μl) was subcutaneously injected into the right hindpaw of rats both in treating group and positive control group. An equal volume of normal saline was injected into the same position of the rats in blank+PBS group. 5% tropicamide and 1% tetracaine was dropped on the eye for mydriasis and local anesthesia. Under operating microscope, 10 μl of polypeptide or PBS of equal volume was intravitreally injected of bilateral eyes. The pars plana was vertically punctured by a 29-gauge microsyringe at 1 mm from corneal limbus and the vitreous cavity was reached. The drug liquid was then injected into the center of the vitreous cavity under direct vision and the needle was pulled out quickly after remaining for a few seconds. All above steps were conducted aseptically.
24 hours after LPS was injected, 6 rats in each experimental group were subjected to anterior chamber puncture by 30 G needle under deep anesthesia, and then bilateral aqueous humor was collected. Other 4 rats were sacrificed by cervical dislocation and the eyeballs were taken and immobilized.
The aqueous humor sample was diluted to 1:5 by trypan blue and then added into hemocytometer for manual counting under optical microscope, and total protein concentration was determined by BCA method.
The eyeballs were taken and immobilized by neutral formaldehyde (10%) and stored at 4° C. The sample was embedded into paraffin, cut into sagittal slices with the thickness of 5 μm, and then subjected to HE staining. The iris and ciliary body, anterior chamber, vitreous body and retina of the eyeballs were observed under optical microscope. The exuded cells in anterior chamber and vitreous cavity were counted by the same pathologist.
The experiment date was shown as x±s. A one-way ANOVA was used to compare the exuded cells and total protein concentration between these groups, and P<0.05 represents statistical significance.

RAW264.7 cells = assay: Cell viability assay (MTS); type: cell-based, mouse; details: RAW264.7 cells co-incubated 24 hours
Experimental: RAW264.7 cells were placed into a 96-well plate for 24-hour adherent culture, and then peptides with different concentrations were added into each well and co-cultured for another 24 hours, while no treatment was taken to the control group. 20 μl of MTS solution was added into each well after 24 hours and cultured for another 3 hours. The culture plate was taken to determine the absorbance of each well at 490 nm.
(§2) The experiment date was shown as x±s. A SPSS 11.0 statistical package was used for statistic analysis and a one-way ANOVA was used to compare RAW264.7 cell viability results, TNF-α and IL-6 level between the groups, and P<0.05 represents statistical significance.

TNF-α = TNF-α level in supernatant of LPS-stimulated RAW264.7 cells (ELISA); type: cell-based, mouse; details: 0.1-10 μM LS22 pretreatment 30 min, LPS 100 ng/mL 24 hours
Experimental: (§3) Mouse RAW264.7 cells were inoculated on the 24-well cell culture plate (400 μl/well). RAW264.7 was pretreated with 0.1-10 μM of LS22 for 30 min, and then LPS (100 ng/mL) was added and co-incubated for 24 hours. Cell supernatant in each well was collected and TNF-α and IL-6 level was determined by ELISA kits.
as §2, §1

IL-6 = IL-6 level in supernatant of LPS-stimulated RAW264.7 cells (ELISA); type: cell-based, mouse; details: 0.1-10 μM LS22 pretreatment 30 min, LPS 100 ng/mL 24 hours
Experimental: as §3, §2, §1

[1] = Water solubility of the synthesized powder; type: physicochemical; details: white powder
Experimental: 7. 120 mg of polypeptide LS22 was obtained as white powder with good water solubility (purification >95%) and then sealed and stored for use at −20° C.

Compound: Polypeptide 7: sequence as set forth by SEQ ID NO.: 5 (ALQSLNLSENGLSLDAVLGLV)
anti-inflammation effect (ocular inflammation; derived polypeptides, 10 μg group or 10 μM): exhibits an anti-inflammation effect to some extent
anti-inflammation effect compared with LS22 (ocular inflammation; weaker than LS22): about 30%

water solubility [1]: good
Compound: CC[C@H](C)[C@H](NC(=O)[C@H](CO)NC(=O)[C@H](CC(N)=O)NC(=O)[C@H](Cc1c[nH]cn1)NC(=O)[C@H](CO)NC(=O)[C@H](CC(C)C)NC(=O)[C@H](CC(=O)O)NC(=O)[C@@H](N)CC(C)C)C(=O)N[C@@H](CO)C(=O)N[C@@H](CCC(N)=O)C(=O)N[C@@H](CCC(=O)O)C(=O)N[C@@H](CO)C(=O)N[C@@H](C)C(=O)N[C@@H](CC(C)C)C(=O)N[C@@H](Cc1ccc(O)cc1)C(=O)N[C@@H](CC(C)C)C(=O)N[C@@H](CC(C)C)C(=O)N[C@@H](CCC(=O)O)C(=O)N[C@H](C(=O)N[C@@H](CC(C)C)C(=O)N1CCC[C@H]1C(=O)N[C@@H](CO)C(=O)O)[C@@H](C)O [LS22] (H-LDLSHNSISQESALYLLETLPS-OH; N-terminus assumed)
protein concentration in rat aqueous humor (uveitis in rats): remarkably decreased
protein concentration in rat aqueous humor (uveitis in rats; listed as LSS): significantly reduced
exuded cells count in rat anterior chamber / aqueous humor (uveitis in rats): remarkably reduced
exuded cells count in rat anterior chamber / aqueous humor (uveitis in rats; listed as LSS): significantly reduced
inflammatory cells in tissues (histopathologic examination) (uveitis in rats; HE staining, anterior chamber, ciliary body, posterior vitreous cavity, after LPS injection): greatly reduced; also recorded: significantly reduced
inhibition of uveitis (uveitis in rats; rats, LPS-induced): significantly inhibited uveitis
toxicity to the cells (RAW264.7 cells): no toxicity was observed
cell viability compared with the control group (RAW264.7 cells; MTS): no statistically significant difference
LPS-induced TNF-α level in cell supernatant (TNF-α): significantly inhibited; also recorded: remarkably inhibited
LPS-induced IL-6 level in cell supernatant (IL-6): significantly inhibited; also recorded: remarkably inhibited
